According to patent US10640487B2, “Solid state forms of Nilotinib salts” (Teva Pharmaceuticals USA, Inc., priority 2016, dated 2020):

Key:
[1] = Thermodynamic stability (resistance to polymorphic conversion) compared with forms I and II of WO'222; assay type: physicochemical; settings: compared to forms I and II of Nilotinib fumarate described in WO'222
From the text: As used herein, and unless indicated otherwise, the term “thermo-dynamical stability” in relation to solid state forms of the present disclosure refers to resistance of the solid state form to polymorphic conversion under certain conditions, for example, heating, melting or dissolving. […] In some embodiments, the conversion is about 1% (w/w) to about 20% (w/w), about 1% (w/w) to about 10% (w/w) or about 1% (w/w) to about 5% (w/w).

[2] = Long term and accelerated storage stability of the solid state form; assay type: physicochemical

thermodynamic stability [1]: thermodynamically more stable
chemical and polymorphic stability ([2]; accelerated stability conditions at 25° C./60% RH with desiccant): chemically and polymorphically stable
chemical and polymorphic stability ([2]; long term stability conditions at 5° C.): chemically and polymorphically stable
Substance: Nilotinib fumarate [Form III of Nilotinib fumarate]
